This is an account of results in the supplement of paper PMC10307832.

Holding throughout (test): relative viability (nuclei count vs DMSO), 5 days (fraction); higher = more cells survive
Compound in the assay “BAM7 + Pictilisib”: CCOC1=CC=CC=C1N=NC2=C(NN(C2=O)C3=NC(=CS3)C4=CC=CC=C4)C [BAM7] + CS(=O)(=O)N1CCN(Cc2cc3nc(-c4cccc5[nH]ncc45)nc(N4CCOCC4)c3s2)CC1 [Pictilisib] (partner 1 µM)
The method in brief:
(§1)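 Medians of duplicate plates are given as relative viability. That measure is the nuclei count in treated wells divided by the count in vehicle wells. Counts were taken on 4× images of lung cancer cell lines in 1536-well plates, 5 days after pin-tool dosing the day after seeding with one drug alone or a fixed anchor-drug dose plus five library-drug doses (not always all listed) in √10 steps.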

Compound in the assay “BAM7 + Bortezomib”: CCOC1=CC=CC=C1N=NC2=C(NN(C2=O)C3=NC(=CS3)C4=CC=CC=C4)C [BAM7] + CC(C)C[C@H](NC(=O)[C@H](Cc1ccccc1)NC(=O)c1cnccn1)B(O)O [Bortezomib] (partner 0.002 µM)
The method in brief: as §1

Compound in the assay “BAM7 + Olaparib”: CCOC1=CC=CC=C1N=NC2=C(NN(C2=O)C3=NC(=CS3)C4=CC=CC=C4)C [BAM7] + O=C(c1cc(Cc2n[nH]c(=O)c3ccccc23)ccc1F)N1CCN(C(=O)C2CC2)CC1 [Olaparib] (partner 8 µM)
In outline: as §1

Compound in assay [1]: CCn1c(-c2nonc2N)nc2c(C#CC(C)(C)O)ncc(OC[C@H]3CCCNC3)c21 + Cc1nc(Nc2ncc(C(=O)Nc3c(C)cccc3Cl)s2)cc(N2CCN(CCO)CC2)n1 [Dasatinib] (partner 0.075 µM)
In outline:
as §1

As for NCI-H1650, the relative viability in the assay with BAM7 + Pictilisib (first compound 0.5 µM) turned out to be 0.524; with BAM7 + Pictilisib (first compound 5 µM), 0.572; in the assay with BAM7 + Pictilisib (first compound 15.81 µM), 0.565; with BAM7 + Pictilisib (first compound 50 µM) it was 0.699; in the assay with BAM7 + Bortezomib (first compound 0.5 µM), 0.235; with BAM7 + Bortezomib (first compound 5 µM) it was 0.297. Also, the relative viability with BAM7 + Bortezomib (first compound 15.81 µM) is 0.202; with BAM7 + Bortezomib (first compound 50 µM), 0.199; with BAM7 + Olaparib (first compound 0.5 µM) it was 0.734; with BAM7 + Olaparib (first compound 5 µM), 0.729; with BAM7 + Olaparib (first compound 15.81 µM), 0.737; with BAM7 + Olaparib (first compound 50 µM) it was 0.737. In addition, the relative viability in assay [1] (first compound 0.01 µM) was found to be 0.338; in assay [1] (first compound 0.03162 µM), 0.302; in assay [1] (first compound 0.1 µM), 0.297; in assay [1] (first compound 0.3162 µM) it was 0.266; in assay [1] (first compound 1 µM), 0.25.
On to NCI-H1651, for which the relative viability is 0.497 in the assay with BAM7 + Pictilisib (first compound 0.5 µM); 0.64 in the assay with BAM7 + Pictilisib (first compound 5 µM); 0.7 with BAM7 + Pictilisib (first compound 15.81 µM); 0.541 with BAM7 + Pictilisib (first compound 50 µM); 0.992 with BAM7 + Bortezomib (first compound 0.5 µM); 0.917 with BAM7 + Bortezomib (first compound 5 µM). The relative viability with BAM7 + Bortezomib (first compound 15.81 µM) is 0.988; with BAM7 + Bortezomib (first compound 50 µM) it was 0.926; with BAM7 + Olaparib (first compound 0.5 µM), 0.192; with BAM7 + Olaparib (first compound 5 µM), 0.202; with BAM7 + Olaparib (first compound 15.81 µM), 0.198; with BAM7 + Olaparib (first compound 50 µM) it was 0.175. Also, the relative viability came to 0.43 in assay [1] (first compound 0.01 µM); 0.402 in assay [1] (first compound 0.03162 µM); 0.412 in assay [1] (first compound 0.1 µM); 0.396 in assay [1] (first compound 0.3162 µM); 0.454 in assay [1] (first compound 1 µM).
Take NCI-H1666: the relative viability with BAM7 + Pictilisib (first compound 0.5 µM) worked out at 0.404; in the assay with BAM7 + Pictilisib (first compound 5 µM), 0.617; in the assay with BAM7 + Pictilisib (first compound 15.81 µM) it was 0.352; with BAM7 + Pictilisib (first compound 50 µM), 0.587; in the assay with BAM7 + Bortezomib (first compound 0.5 µM), 0.852; with BAM7 + Bortezomib (first compound 5 µM), 0.682. The relative viability in the assay with BAM7 + Bortezomib (first compound 15.81 µM) was determined as 0.729; in the assay with BAM7 + Bortezomib (first compound 50 µM), 0.998; with BAM7 + Olaparib (first compound 0.5 µM), 0.818; in the assay with BAM7 + Olaparib (first compound 5 µM) it was 0.727; in the assay with BAM7 + Olaparib (first compound 15.81 µM), 0.752; with BAM7 + Olaparib (first compound 50 µM), 0.781. Further, the relative viability in assay [1] (first compound 0.01 µM) was 0.847; in assay [1] (first compound 0.03162 µM) it was 0.99; in assay [1] (first compound 0.1 µM), 0.833; in assay [1] (first compound 0.3162 µM), 0.819; in assay [1] (first compound 1 µM), 0.771.
As for NCI-H1734, the relative viability with BAM7 + Pictilisib (first compound 0.5 µM) is 0.477; with BAM7 + Pictilisib (first compound 5 µM) it was 0.496; with BAM7 + Pictilisib (first compound 15.81 µM), 0.451; with BAM7 + Pictilisib (first compound 50 µM), 0.482; in the assay with BAM7 + Bortezomib (first compound 0.5 µM), 1.13; with BAM7 + Bortezomib (first compound 5 µM) it was 1.12. The relative viability with BAM7 + Bortezomib (first compound 15.81 µM) was found to be 0.888; in the assay with BAM7 + Bortezomib (first compound 50 µM) it was 0.978; with BAM7 + Olaparib (first compound 0.5 µM), 0.57; with BAM7 + Olaparib (first compound 5 µM), 0.664; with BAM7 + Olaparib (first compound 15.81 µM) it was 0.599; with BAM7 + Olaparib (first compound 50 µM), 0.609. Further, the relative viability in assay [1] (first compound 0.01 µM) is 0.473; in assay [1] (first compound 0.03162 µM), 0.475; in assay [1] (first compound 0.1 µM) it was 0.414; in assay [1] (first compound 0.3162 µM), 0.407; in assay [1] (first compound 1 µM), 0.38.
For the cell line NCI-H1755, the relative viability is 0.454 in the assay with BAM7 + Pictilisib (first compound 0.5 µM); 0.409 with BAM7 + Pictilisib (first compound 5 µM); 0.366 with BAM7 + Pictilisib (first compound 15.81 µM); 0.415 with BAM7 + Pictilisib (first compound 50 µM); 1.02 with BAM7 + Bortezomib (first compound 0.5 µM); 1.01 with BAM7 + Bortezomib (first compound 5 µM). Moreover, the relative viability stood at 0.949 in the assay with BAM7 + Bortezomib (first compound 15.81 µM); 0.95 with BAM7 + Bortezomib (first compound 50 µM); 0.858 with BAM7 + Olaparib (first compound 0.5 µM); 0.939 with BAM7 + Olaparib (first compound 5 µM); 0.858 in the assay with BAM7 + Olaparib (first compound 15.81 µM); 0.899 with BAM7 + Olaparib (first compound 50 µM). In addition, the relative viability in assay [1] (first compound 0.01 µM) came to 0.432; in assay [1] (first compound 0.03162 µM), 0.419; in assay [1] (first compound 0.1 µM), 0.423; in assay [1] (first compound 0.3162 µM), 0.42; in assay [1] (first compound 1 µM), 0.42.
